Laboratory results from patent publication US20100168421A1, “A NEW PEPTIDE DEFORMYLASE INHIBITOR COMPOUND AND MANUFACTURING PROCESS THEREOF” (priority 2007, published 2010).
≈ marks a conversion by molar mass, not a printed value. Like-named read-outs stand apart in the source and are kept apart here.

Assays:
[1] = target: T1, PDF enzyme (Streptococcus pneumoniae serotype 4, UniProt Q9F2F0); test: PDF/FDH coupled enzyme assay, Streptococcus Pneumoniae; format: biochemical; details: substrate fMAS, absorption at 340 nm
T1 sequence (Q9F2F0 1-203): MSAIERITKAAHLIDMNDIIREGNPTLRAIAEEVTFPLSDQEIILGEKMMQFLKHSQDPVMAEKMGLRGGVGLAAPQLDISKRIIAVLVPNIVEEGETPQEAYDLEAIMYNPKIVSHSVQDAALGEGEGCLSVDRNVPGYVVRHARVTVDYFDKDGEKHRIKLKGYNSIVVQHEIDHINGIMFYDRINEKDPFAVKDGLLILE

[2] = target: PDF enzyme (Escherichia coli, UniProt P0A6K3); test: PDF/FDH coupled enzyme assay, E. coli; format: biochemical
Protocol: Activities of PDF enzyme for E. coli and S. aureus were determined using PDF/FDH coupled assay. In this coupled assay, the formate released by PDF from its substrate formyl-Methionine-Alanine-Serine (fMAS) is oxidized by coupling enzyme formate dehydrogenase (FDH), reducing one molecule of NAD^+ to NADH, which is measured absorption at 340 nm.

[3] = test system: Streptococcus pyogenes; test: MIC microdilution, S. pyogenes; format: cell-based; details: microdilution, Mueller-Hinton Broth, 37° C., 24 hours, read-out: MIC Streptococcus pyogenes
Protocol: (§1) Minimum inhibitory concentrations (MICs) were determined using the microdilution method in 96-well format plates. Each of the compounds of Examples was dissolved in dimethyl sulfoxide to a concentration of 2 mg/mL and stored at 4° C. until used. They were diluted in Mueller-Hinton Broth (MHB) and used for MIC determination. The range of concentrations tested was […] final concentration using a two-fold dilution system. Plates were incubated at 37° C. and MIC were recorded after 24 hours of incubation for bacteria.
(§2) Linezolid and vancomycin were used as standard antibiotics, respectively.

[4] = test system: Streptococcus Pneumoniae Pen S; test: MIC microdilution, S. Pneumoniae Pen S; format: cell-based; details: microdilution, Mueller-Hinton Broth, 37° C., 24 hours, read-out: MIC Streptococcus Pneumoniae Pen S
Protocol: as §1, §2

[5] = test system: Vancomycin-resistant Enterococcus faecalis; test: MIC microdilution, VR E. faecalis; format: cell-based; details: microdilution, Mueller-Hinton Broth, 37° C., 24 hours, read-out: MIC Vancomycin-resistant Enterococcus faecalis
Protocol: as §1, §2

[6] = target: PDF enzyme (Streptococcus pyogenes serotype M1, UniProt P68771); test: PDF/FDH coupled enzyme assay, Streptococcus pyogenes; format: biochemical
[7] = test system: Vancomycin-resistant Enterococcus faecium; test: MIC microdilution, VR E. faecium; format: cell-based; details: microdilution, Mueller-Hinton Broth, 37° C., 24 hours, read-out: MIC Vancomycin-resistant Enterococcus faecium
Protocol: as §1, §2

[8] = test system: Streptococcus Pneumoniae Pen NS; test: MIC microdilution, S. Pneumoniae Pen NS; format: cell-based; details: microdilution, Mueller-Hinton Broth, 37° C., 24 hours, read-out: MIC Streptococcus Pneumoniae Pen NS
Protocol: as §1, §2

[9] = Acute toxicity study in mice; details: mouse, in vivo, po, 4000 mg/kg; ICR mice, orally, observed for 14 days
Protocol: The acute toxicity of the compounds of Example 5, 17 and 22 were tested using several groups of ICR mice each of 6 mice.

[10] = PDF/FDH coupled assay, substrate fMAS, absorption at 340 nm, read-out: IC50 Escherichia coli
[11] = PDF/FDH coupled assay, substrate fMAS, absorption at 340 nm, read-out: IC50 Streptococcus pyogenes

Chain of PDF enzyme (Streptococcus pyogenes serotype M1, UniProt P68771) (P68771 whole entry): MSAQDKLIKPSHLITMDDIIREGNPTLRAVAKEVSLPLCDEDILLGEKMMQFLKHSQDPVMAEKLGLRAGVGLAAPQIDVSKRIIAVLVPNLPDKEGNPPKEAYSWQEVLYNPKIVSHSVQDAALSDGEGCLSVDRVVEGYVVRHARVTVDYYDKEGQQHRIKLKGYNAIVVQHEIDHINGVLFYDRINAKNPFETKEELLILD
Chain of PDF enzyme (Escherichia coli, UniProt P0A6K3) (P0A6K3 whole entry): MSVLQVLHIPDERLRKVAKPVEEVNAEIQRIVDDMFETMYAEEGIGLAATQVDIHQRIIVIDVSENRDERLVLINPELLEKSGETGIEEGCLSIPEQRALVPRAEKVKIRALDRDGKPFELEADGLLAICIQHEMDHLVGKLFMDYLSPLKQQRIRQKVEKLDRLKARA

For Cc1ccc(CNC2CCN(C(=O)[C@@H](NC(=O)[C@H](CC3CCCC3)CN(O)C=O)C(C)(C)C)CC2)cc1 [Example 2, (R)-2-Cyclopentylmethyl-N-{(S)-2,2-dimethyl-1-[4-(4-methyl-benzylamino)-piperidine-1-carbonyl]-propyl}-3-(formyl-hydroxy-amino)-propionamide], the IC50 [1] was 0.077 µM, the IC50 [2, 10] was 0.132 µM and the MIC [3] was 0.2 mg/L (≈ 0.389 µM). It also gave an MIC [4] of 0.1 mg/L (≈ 0.194 µM), an MIC [5] of 3.1 mg/L (≈ 6.02 µM) and an IC50 [6, 11] of 0.086 µM. For the same compound, the MIC [7] was 0.4 mg/L (≈ 0.777 µM) and the MIC [8] was 0.4 mg/L (≈ 0.777 µM).

For COc1ccc(CNC2CCN(C(=O)[C@@H](NC(=O)[C@H](CC3CCCC3)CN(O)C=O)C(C)(C)C)CC2)cc1 [Example 5, (R)-2-Cyclopentylmethyl-3-(formyl-hydroxy-amino)-N-{(S)-1-[4-(4-methoxy-benzylamino)-piperidine-1-carbonyl]-2,2-dimethyl-propyl}-propionamide], the LD50 at 14 days [9] was over 2000 mg/kg, the MIC [3] was 0.4 mg/L (≈ 0.754 µM) and the MIC [4] was 0.2 mg/L (≈ 0.377 µM). For the same compound, the MIC [5] was 6.3 mg/L (≈ 11.9 µM), the MIC [7] was 1.6 mg/L (≈ 3.01 µM) and the MIC [8] was 0.8 mg/L (≈ 1.51 µM).

Compound CC(C)(C)[C@H](NC(=O)[C@H](CC1CCCC1)CN(O)C=O)C(=O)N1CCC(NCc2ccc(O)cc2)CC1 [Example 6, (R)-2-Cyclopentylmethyl-3-(formyl-hydroxy-amino)-N-{(S)-1-[4-(4-hydroxy-benzylamino)-piperidine-1-carbonyl]-2,2-dimethyl-formyl}-propionamide] has an IC50 [1] of 0.042 µM, an IC50 [2, 10] of 0.102 µM and an MIC [3] of 0.8 mg/L (≈ 1.55 µM). It also gave an MIC [4] of 0.8 mg/L (≈ 1.55 µM), an MIC [5] of over 50 mg/L and an IC50 [6, 11] of 0.084 µM. For the same compound, the MIC [7] was 50 mg/L (≈ 96.8 µM) and the MIC [8] was 3.1 mg/L (≈ 6 µM).

In the case of CC(C)(C)[C@H](NC(=O)[C@H](CC1CCCC1)CN(O)C=O)C(=O)N1CCC(NCc2ccc(O)c(O)c2)CC1 [Example 13, (R)-2-Cyclopentylmethyl-N-{(S)-1-[4-(3,4-dihydroxy-benzylamino)-piperidine-1-carbonyl]-2,2-dimethyl-propyl}-3-(formyl-hydroxy-amino)-propionamide], the IC50 [1] is reported as 0.046 µM, the IC50 [2] is reported as 0.133 µM and the IC50 [6] is reported as 0.088 µM.

Work on CC(C)(C)[C@H](NC(=O)[C@H](CC1CCCC1)CN(O)C=O)C(=O)N1CCC(Nc2ccc(O)cc2)CC1 [Example 20, (R)-2-Cyclopentylmethyl-3-(formyl-hydroxy-amino)-N-{(S)-1-[4-(4-hydroxy-phenylamino)-piperidine-1-carbonyl]-2,2-dimethyl-formyl}-propionamide] yielded an IC50 [1] of 0.063 µM, an IC50 [2, 10] of 0.102 µM and an MIC [3] of 1.6 mg/L (≈ 3.18 µM). The MIC [4] was 0.8 mg/L (≈ 1.59 µM), the MIC [5] was 25 mg/L (≈ 49.7 µM) and the IC50 [6, 11] was 0.061 µM. It also gave an MIC [7] of 25 mg/L (≈ 49.7 µM) and an MIC [8] of 3.1 mg/L (≈ 6.17 µM).

Compound CC(C)(C)[C@H](NC(=O)[C@H](CC1CCCC1)CN(O)C=O)C(=O)N1CCC(NCc2ccco2)CC1 [Example 27, (R)-2-Cyclopentylmethyl-3-(formyl-hydroxy-amino)-N-((S)-1-{4-[(furan-2-ylmethyl)-amino]-piperidine-1-carbonyl}-2,2-dimethyl-propyl)-propionamide] has an IC50 [1] of 0.042 µM, an IC50 [2] of 0.117 µM and an IC50 [6] of 0.063 µM.

Compound COc1coc(CNC2CCN(C(=O)[C@@H](NC(=O)[C@H](CC3CCCC3)CN(O)C=O)C(C)(C)C)CC2)cc1=O [Example 29, (R)-2-Cyclopentylmethyl-3-(formyl-hydroxy-amino)-N-((S)-1-{4-[(5-methoxy-4-oxo-4H-pyran-2-ylmethyl)-amino]-piperidine-1-carbonyl}-2,2-dimethyl-propyl)-propionamide] has an IC50 [1] of 0.043 µM, an IC50 [2] of 0.155 µM and an IC50 [6] of 0.054 µM.

Compound CC(C)(C)[C@H](NC(=O)[C@H](CC1CCCC1)CN(O)C=O)C(=O)N1CCC(NCc2cc(=O)c(O)co2)CC1 [Example 30, (R)-2-Cyclopentylmethyl-3-(formyl-hydroxy-amino)-N-((S)-1-{4-[(5-hydroxy-4-oxo-4H-pyran-2-ylmethyl)-amino]-piperidin-1-carbonyl}-2,2-dimethyl-propyl)-propionamide] has an IC50 [1] of 0.05 µM, an IC50 [2] of 0.16 µM and an IC50 [6] of 0.062 µM.
